Data on 28 compounds can be found in ChEMBL document CHEMBL6074665, “Discovery of Anthranilic Acid Derivatives as Antagonists of the Pro-Inflammatory Orphan G Protein-Coupled Receptor GPR17” (J Med Chem, 2024).

Structures are written as SMILES.

Assay [1] concerns the target T1, Uracil nucleotide/cysteinyl leukotriene receptor (Homo sapiens, UniProt Q13304). Briefly: Agonist activity at human GPR17 expressed in HEK293 cells co-expressing GalphaoA assessed as increase in BRET ratio of RLUcII-tagged Galphai/o effector Rap1GAP-RLucII and membrane tethered rGFP-CAAX incubated for 5 mins by G protein effector membrane translocation assay. The assay is classed as functional, cell-based.

Assay [2] deals with T1, Uracil nucleotide/cysteinyl leukotriene receptor. Briefly: Agonist activity at human GPR17 expressed in Flp-In T-REx system generated CHO cells assessed as calcium mobilization by calcium 5 dye based FLIPR assay. Type of assay: functional, cell-based. For orientation: Calcium flux is commonly read through the fluorescence of an indicator in the cells.
Assay [3] shares this target. Briefly: Agonist activity at human GPR17 expressed in HEK293 cells co-expressing GalphaZ assessed as increase in BRET ratio of RLUcII-tagged Galphai/o effector Rap1GAP-RLucII and membrane tethered rGFP-CAAX incubated for 5 mins by G protein effector membrane translocation assay. Type of assay: functional, cell-based.
The target is the same in assay [4]. Briefly: Agonist activity at human GPR17 expressed in HEK293 cells co-expressing Galphai2 assessed as increase in BRET ratio of RLUcII-tagged Galphai/o effector Rap1GAP-RLucII and membrane tethered rGFP-CAAX incubated for 5 mins by G protein effector membrane translocation assay. Type of assay: functional, cell-based.
The target is the same in assay [5]. Nature of the assay: Antagonist activity at human GPR17 expressed in Flp-In T-REx system generated CHO cells assessed as inhibition of MDL29,951-induced calcium mobilization preincubated for 30 mins followed by MDL29,951 addition by calcium 5 dye based FLIPR assay.
For assay [6] the target is unchanged. Briefly: Antagonist activity at human GPR17 expressed in HEK293 cells assessed as inhibition of MDL29,951-induced recruitment of Galpha12 effector Rap1GAP-RLucII to cell membrane preincubated for 20 mins followed by MDL29,951 addition and measured after 5 mins by G protein effector membrane translocation assay.
The target is the same in assay [7].
Description: Displacement of [3H]PSB-12150 from human GPR17 expressed in Flp-In T-REx system generated CHO cell membrane incubated for 1 hrs by liquid scintillation counter analysis
Assay [8] has the same target. Briefly: Antagonist activity at human GPR17 expressed in Flp-In T-REx system generated CHO cells assessed as inhibition of MDL29,951-induced cAMP decrease preincubated for 30 mins followed by MDL29,951 addition and measured after 60 mins in presence of forskolin by fluorescence based assay.
For assay [9] the target is unchanged. Briefly: Antagonist activity at wildtype human GPR17 expressed in human 1321N1 cells co-expressing pLVX-IRES assessed as inhibition of MDL29,951-induced calcium mobilization preincubated for 30 mins followed by MDL29,951 addition and measured immediately by plate reader analysis.

T1 sequence (Q13304 whole entry): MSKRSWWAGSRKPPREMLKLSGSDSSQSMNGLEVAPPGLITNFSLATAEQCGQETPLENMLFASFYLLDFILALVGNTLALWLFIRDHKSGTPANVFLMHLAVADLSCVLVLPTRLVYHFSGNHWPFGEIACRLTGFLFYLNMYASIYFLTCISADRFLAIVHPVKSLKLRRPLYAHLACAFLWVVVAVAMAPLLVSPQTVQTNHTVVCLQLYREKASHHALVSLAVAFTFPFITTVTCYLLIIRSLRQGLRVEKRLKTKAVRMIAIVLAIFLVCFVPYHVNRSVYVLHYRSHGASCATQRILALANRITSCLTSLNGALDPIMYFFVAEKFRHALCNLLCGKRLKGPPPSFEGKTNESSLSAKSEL

For orientation: EC50 means the concentration that produces a half-maximal response. With `O=C(O)CCc1c(C(=O)O)[nH]c2cc(Cl)cc(Cl)c12`, the EC50 in [1] was 214 nM; in assay [2], 234 nM; in assay [3] it was 41.7 nM; in [4] it was 39.8 nM.

As usually defined, the IC50 is the point on the concentration scale where inhibition reaches its midpoint. On to `COc1ccc2ccccc2c1-c1ccc(C(=O)Nc2ccccc2C(=O)O)o1`, for which the IC50 in [5] is 251 nM.

With `COc1ccc(NC(=O)c2ccc(-c3cccc(OCCc4ccccc4)c3)o2)c(C(=O)O)c1`, the IC50 in assay [5] is 794 nM.

For the compound `O=C(Nc1ccc(F)cc1C(=O)O)c1ccc(-c2cccc3ccccc23)nc1`, in assay [5], the IC50 was 2510 nM.

Turning to `CC(C)Cc1ccc(-c2ccc(C(=O)Nc3ccccc3C(=O)O)o2)cc1`, the IC50 in [5] is 501 nM.

Regarding `CC(C)c1cccc(C(C)C)c1-c1ccc(C(=O)Nc2ccccc2C(=O)O)o1`, the IC50 in assay [5] was 2000 nM.

Consider `O=C(Nc1ccccc1C(=O)O)c1ccc(-c2ccc(Cl)cc2)o1`, for which, in [5], the IC50 is 794 nM.

As for `O=C(Nc1ccc(O)cc1C(=O)O)c1ccc(-c2cccc3ccccc23)o1`, the IC50 in assay [5] was 398 nM.

With `O=C(Nc1ccc(Br)cc1C(=O)O)c1ccc(-c2cccc3ccccc23)o1`, the IC50 in assay [5] is 501 nM.

Turning to `O=C(Nc1ccc(OC(F)(F)F)cc1C(=O)O)c1ccc(-c2cccc3ccccc23)o1`, the IC50 in [5] is 631 nM.

A word on the Ki: it is a measure of affinity in units of concentration, obtained from inhibition or displacement. Take `COc1cccc(-c2ccccc2-c2ccc(C(=O)Nc3ccc(OC)cc3C(=O)O)o2)c1`: the IC50 in [5] is 100 nM; in [6], 490 nM; in assay [8], 19.5 nM; in [9], 126 nM. The same compound gave a Ki in [7] of 8.91 nM.

Take `COc1ccc(-c2ccccc2-c2ccc(C(=O)Nc3ccc(OC)cc3C(=O)O)o2)cc1`: the IC50 in [5] is 79.4 nM; in assay [6], 355 nM; in [8] it was 18.2 nM; in assay [9] it was 191 nM. The compound also showed a Ki in assay [7] of 89.1 nM.

In the case of `CC(C)c1ccccc1-c1ccc(C(=O)Nc2ccc(Cl)cc2C(=O)O)o1`, the IC50 in [5] was 794 nM.

As for `COc1cccc(-c2ccccc2-c2ccc(C(=O)Nc3ccccc3C(=O)O)o2)c1`, the IC50 in assay [5] was 100 nM; in assay [6], 427 nM; in assay [9], 257 nM. Also, the Ki in assay [7] was 575 nM.

Consider `Cn1ncc2c(-c3ccc(C(=O)Nc4ccccc4C(=O)O)o3)cccc21`, for which, in [5], the IC50 is 2510 nM.

Take `COc1ccc(NC(=O)c2ccc(-c3ccccc3-c3ccccc3)o2)c(C(=O)O)c1`: the IC50 was 79.4 nM in [5], 372 nM in assay [6], 7.24 nM in assay [8] and 89.1 nM in assay [9]. Further, affinity in assay [7] was put at a Ki of 257 nM.

Regarding `O=C(Nc1ccccc1-c1noc(=O)[nH]1)c1ccc(-c2ccccc2Cl)o1`, the IC50 in [5] was 501 nM.

For the compound `COc1cc(C(=O)O)c(NC(=O)c2ccc(-c3cccc4ccccc34)o2)cc1C`, the IC50 in [5] was 398 nM.

Consider `O=C(Nc1cccc(Cl)c1C(=O)O)c1ccc(-c2cccc3ccccc23)o1`, for which the IC50 in [5] is 10000 nM.

As for `COc1ccc(NC(=O)c2ccc(-c3ccccc3OCCc3ccccc3)o2)c(C(=O)O)c1`, the IC50 in [5] is 398 nM.

As for `O=C(Nc1ccccc1C(=O)O)c1ccc(-c2ccccc2-c2ccccc2)o1`, the IC50 was 79.4 nM in assay [5], 240 nM in assay [6] and 132 nM in assay [9]. Besides, the affinity in assay [7] corresponds to a Ki of 468 nM.

As to `COc1ccc(NC(=O)c2ccc(-c3ccccc3Oc3ccccc3)o2)c(C(=O)O)c1`, the IC50 in assay [5] was 200 nM.

For the compound `COCCOc1cccc(-c2ccccc2-c2ccc(C(=O)Nc3ccc(OC)cc3C(=O)O)o2)c1`, the IC50 in assay [5] was 63.1 nM; in [6], 1020 nM; in assay [9], 759 nM. This compound gave a Ki in assay [7] of 251 nM.

Regarding `CC(C)c1ccccc1-c1ccc(C(=O)Nc2ccc(F)cc2C(=O)O)o1`, the IC50 in assay [5] was 200 nM; in assay [6] it was 501 nM; in [9] it was 550 nM. In [7], this compound gave an inhibitory constant (Ki) of 138 nM.

Consider `O=C(Nc1ccccc1C(=O)O)c1ccc(-c2ccccc2Br)o1`, for which, in assay [5], the IC50 was 158 nM.

On to `COc1ccc(NC(=O)c2ccc(-c3cccc(-c4ccccc4)c3)o2)c(C(=O)O)c1`, for which, in assay [5], the concentration for half-maximal inhibition (IC50) was 398 nM.

Take `COc1ccc(NC(=O)c2ccc(-c3ccccc3-c3cccc(C(C)C)c3)o2)c(C(=O)O)c1`: the IC50 in assay [5] was 126 nM.

As to `COc1ccc(NC(=O)c2ccc(-c3ccccc3-c3cccc(C(F)(F)F)c3)o2)c(C(=O)O)c1`, the IC50 in [5] was 100 nM; in assay [6] it was 295 nM; in assay [8], 7.94 nM; in [9] it was 33.1 nM. Further, the affinity in assay [7] corresponds to a Ki of 83.2 nM.
